# Results from ChEMBL document CHEMBL6134827, “The discovery of novel antimicrobial peptides against drug-resistant bacteria based on fragments fusion strategy” (Eur J Med Chem, 2025).
# Activity calls are given as the source filed them. No cut-off for these calls is given here. Non-standard residues stand in square brackets, D forms with d. Residues, ends and D or L forms follow the SMILES beside them. Dab = NCC[C@H](N)C(=O)O
# Experiments:
# [1] = system: Pseudomonas aeruginosa; test: Antimicrobial activity against multidrug resistant Pseudomonas aeruginosa at 1.9 to 500 microg/ml in presence of lipopolysaccharide by checkerboard microdilution assay; assay type: functional, organism-based; conditions: dose 1.9-500 µg/ml
# [2] = system: Pseudomonas aeruginosa; test: In vivo antibacterial activity against multidrug resistant Pseudomonas aeruginosa infected in acute peritonitis C57BL/6 mouse model assessed as decrease in IL-1beta level in serum at 5 to 20 mg/kg, ip measured after 12 hrs by ELISA; assay type: functional, organism-based; conditions: dose 5-20 mg/kg
# [3] = Hepatotoxicity in female C57BL/6 mouse assessed as change in AST level at 20 mg/kg, ip administered daily and measured for 5 days; assay type: toxicity, organism-based; conditions: in vivo, 120 h, time 5 day
# [4] = system: Pseudomonas aeruginosa; test: Induction of morphological changes in multidrug resistant Pseudomonas aeruginosa assessed as surface roughening at 16 microg/ml incubated for 1 hrs by SEM analysis; assay type: functional, organism-based; conditions: dose 16.0 µg/ml
# [5] = Cytotoxicity against human BEAS-2B cells assessed as inhibition of cell growth measured after 24 hrs by CCK-8 assay; assay type: toxicity, cell-based
# [6] = system: Cell membrane; test: Induction of cytoplasmic membrane depolarization in multidrug resistant Pseudomonas aeruginosa assessed as increase in fluorescence intensity measured for 12 min by DISC3-5 dye based fluorescence analysis; assay type: subcellular; conditions: dose 4-32 µg/ml
# [7] = system: Staphylococcus aureus; test: Induction of morphological changes in multidrug resistant Staphylococcus aureus assessed as surface roughening at 16 microg/ml incubated for 1 hrs by SEM analysis; assay type: functional, organism-based; conditions: dose 16.0 µg/ml
# [8] = system: Pseudomonas aeruginosa; test: Antimicrobial activity against multidrug resistant Pseudomonas aeruginosa at 1.9 to 500 microg/ml in presence of phosphatidylcholine by checkerboard microdilution assay; assay type: functional, organism-based; conditions: dose 1.9-500 µg/ml
# [9] = Toxicity in female C57BL/6 mouse assessed as histopathological change in liver at 20 mg/kg, ip administered daily and measured for 5 days by H and E staining based analysis; assay type: organism-based; conditions: in vivo, 120 h, time 5 day
# [10] = Toxicity in female C57BL/6 mouse assessed as histopathological change in lung at 20 mg/kg, ip administered daily and measured for 5 days by H and E staining based analysis; assay type: organism-based; conditions: in vivo, 120 h, time 5 day
# [11] = system: Pseudomonas aeruginosa; test: In vivo antibacterial activity against multidrug resistant Pseudomonas aeruginosa infected in acute peritonitis C57BL/6 mouse model assessed as reduction in bacterial load in liver at 10 to 20 mg/kg, ip measured after 12 hrs; assay type: functional, organism-based; conditions: dose 10-20 mg/kg
# [12] = system: Pseudomonas aeruginosa; test: Induction of morphological changes in multidrug resistant Pseudomonas aeruginosa assessed as effect on cell integrity at 16 microg/ml incubated for 1 hrs by SEM analysis; assay type: functional, organism-based; conditions: dose 16.0 µg/ml
# [13] = system: Staphylococcus aureus; test: Drug resistance, ratio of MIC for Staphylococcus aureus ATCC 29213 after 16 passages exposure to MIC for Staphylococcus aureus ATCC 29213 after first exposure; assay type: functional
# [14] = system: Pseudomonas aeruginosa; test: In vivo antibacterial activity against multidrug resistant Pseudomonas aeruginosa infected in acute peritonitis C57BL/6 mouse model assessed as reduction in bacterial load in lung at 10 to 20 mg/kg, ip measured after 12 hrs; assay type: functional, organism-based; conditions: dose 10-20 mg/kg
# [15] = Cytotoxicity against human BEAS-2B cells assessed as survival rate at 64 microg/ml measured after 24 hrs by CCK-8 assay relative to control; assay type: toxicity, cell-based; conditions: at 64 µg/mL, read-out: Survival
# [16] = system: Cell membrane; test: Induction of cytoplasmic membrane depolarization in multidrug resistant Pseudomonas aeruginosa assessed as increase in fluorescence intensity at MIC concentration measured within 1 min by DISC3-5 dye based fluorescence analysis; assay type: subcellular
structure (smiles),measurement,setting,value
CC(C)C[C@H](NC(=O)CN)C(=O)N[C@@H](CCCNC(=N)N)C(=O)N[C@@H](CCN)C(=O)N[C@@H](Cc1c[nH]c2ccccc12)C(=O)N[C@@H](CC(C)C)C(=O)N[C@@H](CCCNC(=N)N)C(=O)N[C@@H](CCN)C(=O)N[C@@H](Cc1ccccc1)C(=O)N[C@@H](CCN)C(=O)N[C@@H](CCN)C(=O)N[C@@H](Cc1ccccc1)C(=O)N[C@@H](Cc1c[nH]c2ccccc12)C(=O)O (H-GLR[Dab]WLR[Dab]F[Dab][Dab]FW-OH),Activity,[1],inactive
same,Activity,[2],Active
same,Activity,[3],Non-toxic
same,Activity,[4],Active
same,CC50 at 24 h,[5],> 64 µg/mL
same,Activity,[6],Dose-dependent-effect
same,Activity,[7],Active
same,Activity,[8],Active
same,Activity,[9],Non-toxic
same,Activity,[10],Non-toxic
same,Activity,[11],Active
same,Activity,[12],Active
same,Ratio,[13],<2
same,Activity,[14],Active
same,"viability at 24 h, 64 µg/mL",[15],> 80%
same,Activity,[16],Active; Maximal Depolarization Observed
